According to PubChem BioAssay (NCI):
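48-hour exposure; five concentrations; linearly interpolated endpoints. At the TGI there is no net growth.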

Experiments:
Assay in all cases: NCI anticancer screen, dose series, 48 h
M14 melanoma = system: M14 melanoma
U251 CNS = system: U251 CNS
MDA-MB-231 breast = system: MDA-MB-231 breast
RXF 393 renal = system: RXF 393 renal
BT-549 breast = system: BT-549 breast
T-47D breast = system: T-47D breast
KM12 colon = system: KM12 colon
A549 NSCLC = system: A549 NSCLC
786-0 renal = system: 786-0 renal
PC-3 prostate = system: PC-3 prostate
SW-620 colon = system: SW-620 colon
RPMI-8226 leukemia = system: RPMI-8226 leukemia
SK-MEL-28 melanoma = system: SK-MEL-28 melanoma
SK-MEL-5 melanoma = system: SK-MEL-5 melanoma
OVCAR-3 ovarian = system: OVCAR-3 ovarian
HCT-15 colon = system: HCT-15 colon
CCRF-CEM leukemia = system: CCRF-CEM leukemia
MALME-3M melanoma = system: MALME-3M melanoma
K-562 leukemia = system: K-562 leukemia
OVCAR-5 ovarian = system: OVCAR-5 ovarian
IGROV1 ovarian = system: IGROV1 ovarian
HCC-2998 colon = system: HCC-2998 colon
LOX IMVI melanoma = system: LOX IMVI melanoma
SF-539 CNS = system: SF-539 CNS
SF-268 CNS = system: SF-268 CNS
SN12C renal = system: SN12C renal
COLO 205 colon = system: COLO 205 colon
SNB-75 CNS = system: SNB-75 CNS
A498 renal = system: A498 renal
MOLT-4 leukemia = system: MOLT-4 leukemia
SF-295 CNS = system: SF-295 CNS
UO-31 renal = system: UO-31 renal
OVCAR-8 ovarian = system: OVCAR-8 ovarian
CAKI-1 renal = system: CAKI-1 renal
MDA-MB-435 = system: MDA-MB-435
UACC-257 melanoma = system: UACC-257 melanoma
NCI-H460 lung = system: NCI-H460 lung
HS 578T breast = system: HS 578T breast
OVCAR-4 ovarian = system: OVCAR-4 ovarian
NCI-H522 lung = system: NCI-H522 lung
TK-10 renal = system: TK-10 renal
HL-60(TB) leukemia = system: HL-60(TB) leukemia
SK-MEL-2 melanoma = system: SK-MEL-2 melanoma
NCI-H226 lung = system: NCI-H226 lung
MCF7 breast = system: MCF7 breast
MDA-N = system: MDA-N
HOP-92 NSCLC = system: HOP-92 NSCLC
SR leukemia = system: SR leukemia
NCI/ADR-RES ovarian = system: NCI/ADR-RES ovarian
SNB-19 CNS = system: SNB-19 CNS
NCI-H23 lung = system: NCI-H23 lung
HCT-116 colon = system: HCT-116 colon
DU-145 prostate = system: DU-145 prostate
EKVX NSCLC = system: EKVX NSCLC
SK-OV-3 ovarian = system: SK-OV-3 ovarian
HT29 colon = system: HT29 colon
ACHN renal = system: ACHN renal
HOP-62 NSCLC = system: HOP-62 NSCLC
UACC-62 melanoma = system: UACC-62 melanoma
KM20L2 colon = system: KM20L2 colon
M19-MEL melanoma = system: M19-MEL melanoma
DMS 273 small cell lung = system: DMS 273 small cell lung
DLD-1 colon = system: DLD-1 colon
DMS 114 small cell lung = system: DMS 114 small cell lung
SNB-78 CNS = system: SNB-78 CNS
LXFL 529 NSCLC = system: LXFL 529 NSCLC

Measured: TGI

Nc1nc(N)[n+]([O-])c(N)c1NCO
> 100 µM: M14 melanoma | U251 CNS | MDA-MB-231 breast | RXF 393 renal | BT-549 breast | T-47D breast | KM12 colon | A549 NSCLC | 786-0 renal | PC-3 prostate | SW-620 colon | RPMI-8226 leukemia | SK-MEL-28 melanoma | SK-MEL-5 melanoma | OVCAR-3 ovarian | HCT-15 colon | CCRF-CEM leukemia | MALME-3M melanoma | K-562 leukemia | OVCAR-5 ovarian | IGROV1 ovarian | HCC-2998 colon | LOX IMVI melanoma | SF-539 CNS | SF-268 CNS | SN12C renal | COLO 205 colon | SNB-75 CNS | A498 renal | MOLT-4 leukemia | SF-295 CNS | UO-31 renal | OVCAR-8 ovarian | CAKI-1 renal | MDA-MB-435 | UACC-257 melanoma | NCI-H460 lung | HS 578T breast | OVCAR-4 ovarian | NCI-H522 lung | TK-10 renal | HL-60(TB) leukemia | SK-MEL-2 melanoma | NCI-H226 lung | MCF7 breast | MDA-N | HOP-92 NSCLC | SR leukemia | NCI/ADR-RES ovarian | SNB-19 CNS | NCI-H23 lung | HCT-116 colon | DU-145 prostate | EKVX NSCLC | SK-OV-3 ovarian | HT29 colon | ACHN renal | HOP-62 NSCLC | UACC-62 melanoma

CCN(CC)CCNC(=O)c1ccc([N+](=O)[O-])cc1OC
> 100 µM: M14 melanoma | U251 CNS | KM20L2 colon | RXF 393 renal | M19-MEL melanoma | KM12 colon | A549 NSCLC | 786-0 renal | SW-620 colon | SK-MEL-28 melanoma | SK-MEL-5 melanoma | OVCAR-3 ovarian | HCT-15 colon | CCRF-CEM leukemia | MALME-3M melanoma | K-562 leukemia | OVCAR-5 ovarian | IGROV1 ovarian | DMS 273 small cell lung | DLD-1 colon | LOX IMVI melanoma | SF-539 CNS | SF-268 CNS | DMS 114 small cell lung | SN12C renal | COLO 205 colon | SNB-75 CNS | A498 renal | SNB-78 CNS | MOLT-4 leukemia | SF-295 CNS | LXFL 529 NSCLC | UO-31 renal | OVCAR-8 ovarian | CAKI-1 renal | UACC-257 melanoma | NCI-H460 lung | OVCAR-4 ovarian | NCI-H522 lung | TK-10 renal | HL-60(TB) leukemia | SK-MEL-2 melanoma | NCI-H226 lung | HOP-92 NSCLC | SR leukemia | SNB-19 CNS | NCI-H23 lung | HCT-116 colon | EKVX NSCLC | SK-OV-3 ovarian | HT29 colon | ACHN renal | HOP-62 NSCLC | UACC-62 melanoma
